# Results reported in article PMC6715294 (Molecular cancer therapeutics, 2018).
# Experiments:
# [1] = target: AKT2 (Homo sapiens, UniProt P31751); assay: ADP-Glo kinase assay with active AKT2; assay type: biochemical
# [2] = target: AKT1 (Homo sapiens, UniProt P31749); assay: ADP-Glo kinase assay with active AKT1; assay type: biochemical
# Sequence of AKT1 (P31749 whole entry): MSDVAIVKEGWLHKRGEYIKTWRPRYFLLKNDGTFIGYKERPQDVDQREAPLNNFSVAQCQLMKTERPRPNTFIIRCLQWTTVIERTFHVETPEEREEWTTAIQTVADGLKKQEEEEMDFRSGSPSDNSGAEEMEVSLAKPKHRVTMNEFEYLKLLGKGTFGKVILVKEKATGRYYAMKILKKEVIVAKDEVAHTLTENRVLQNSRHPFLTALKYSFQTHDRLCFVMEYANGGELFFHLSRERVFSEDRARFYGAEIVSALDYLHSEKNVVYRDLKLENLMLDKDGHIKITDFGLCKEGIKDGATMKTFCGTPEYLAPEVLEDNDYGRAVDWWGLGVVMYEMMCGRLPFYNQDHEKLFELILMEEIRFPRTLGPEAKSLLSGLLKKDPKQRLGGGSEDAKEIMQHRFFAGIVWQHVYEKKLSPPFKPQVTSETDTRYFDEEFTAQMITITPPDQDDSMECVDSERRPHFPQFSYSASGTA
# Sequence of AKT2 (P31751 whole entry): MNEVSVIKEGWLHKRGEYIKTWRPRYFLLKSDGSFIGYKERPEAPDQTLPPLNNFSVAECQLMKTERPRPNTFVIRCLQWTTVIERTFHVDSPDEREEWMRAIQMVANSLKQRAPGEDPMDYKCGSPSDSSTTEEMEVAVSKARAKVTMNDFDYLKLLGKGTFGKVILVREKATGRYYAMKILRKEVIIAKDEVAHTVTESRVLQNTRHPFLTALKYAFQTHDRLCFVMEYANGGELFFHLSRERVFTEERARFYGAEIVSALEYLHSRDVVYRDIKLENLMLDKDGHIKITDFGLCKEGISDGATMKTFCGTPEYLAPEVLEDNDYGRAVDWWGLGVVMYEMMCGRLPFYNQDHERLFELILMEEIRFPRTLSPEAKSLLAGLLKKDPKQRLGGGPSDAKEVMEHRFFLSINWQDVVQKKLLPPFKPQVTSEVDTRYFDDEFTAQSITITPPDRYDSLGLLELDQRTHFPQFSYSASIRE
smiles,measurement,setting,value
C=C1C(=O)[C@]23[C@H](O)[C@H]1CC[C@H]2[C@@]12CO[C@]3(O)[C@@H](O)[C@@H]1C(C)(C)CC[C@@H]2O [oridonin],IC50,[1],8.9 ± 0.92 µM
same,IC50,[2],8.4 ± 1.34 µM
